Test results published in ChEMBL document CHEMBL1157461, “Potent non-nucleoside inhibitors of the measles virus RNA-dependent RNA polymerase complex” (J Med Chem, 2008).

Experiments:
[1] = Cytotoxicity against african green monkey Vero cells by MTT assay; assay type: cell-based; conditions: chlorocebus sabaeus
[2] = system: Measles morbillivirus; assay: Antiviral activity against Measles virus Alaska in Vero cells assessed as inhibition of cytopathic effect; assay type: functional, organism-based
[3] = Cytotoxicity against african green monkey Vero cells by trypan blue exclusion assay; assay type: cell-based; conditions: chlorocebus sabaeus
[4] = system: Measles morbillivirus; assay: Antiviral activity against Measles virus Alaska in Vero cells assessed as reduction of viral titer; assay type: functional, organism-based
[5] = system: Measles morbillivirus; assay: Antiviral activity against Measles virus Edmonston; assay type: functional, organism-based
[6] = (§1) Selectivity index, ratio of CC50 for african green monkey Vero cells to EC50 for Measles virus Alaska; assay type: toxicity, cell-based; conditions: read-out: Ratio CC50/EC50
[7] = Selectivity index, ratio of CC50 for Vero cells to EC50 for Measles virus Leningrad 16; assay type: toxicity, cell-based; conditions: monkey, read-out: Ratio CC50/EC50
[8] = as §1; assay type: toxicity, cell-based; conditions: read-out: Ratio CC50/EC50; remark: listed apart in the source

| Structure (SMILES) | CC50 [1] [µM] | EC50 [2] [µM] | EC50 [4] [nM] | other results |
| --- | --- | --- | --- | --- |
| Cn1nc(C(F)(F)F)cc1C(=O)Nc1ccc(S(=O)(=O)NC2CCCCC2)cc1 | 15 | > 15 | – | – |
| O=C(O)c1ccccc1-n1nc(C(F)(F)F)cc1C(=O)Nc1ccc(S(=O)(=O)N2CCCC2)cc1 | – | > 75 | > 75000 | CC50 [3]: > 300 µM |
| CN(C(=O)c1cc(C(F)(F)F)nn1C)c1ccc(S(=O)(=O)N2CCCCC2)cc1 | 286 | > 75 | – | – |
| Cn1nc(C(F)(F)F)cc1C(=O)Nc1ccc(S(=O)(=O)N2CCNCC2)cc1 | – | 28 | – | – |
| Cn1nc(C(F)(F)F)cc1C(=O)Nc1ccc(S(=O)(=O)N2CCN(C(=O)OC(C)(C)C)CC2)cc1 | > 300 | > 75 | – | – |
| CC1CCCC(C)N1S(=O)(=O)c1ccc(NC(=O)c2cc(C(F)(F)F)nn2C)cc1 (configuration not stated) | > 300 | < 2.3 | 14 | CC50 [3]: 328 µM |
| Cn1nc(C(F)(F)F)cc1C(=O)Nc1ccc(S(=O)(=O)N2CCC(C(F)(F)F)CC2)cc1 | 159 | 2.3 | 20 | – |
| Cn1nc(C(F)(F)F)cc1C(=O)Nc1ccc(S(=O)(=O)OC2CCCCC2)cc1 | > 300 | > 75 | – | – |
| Cn1nc(C(F)(F)F)cc1C(=O)Nc1ccc(S(=O)(=O)N2CCCCC2C(=O)O)cc1 (configuration not stated) | > 300 | > 75 | – | – |
| Nc1ccc(O)c(NC(=O)Cc2ccccc2)c1 | – | – | – | EC50 [5]: 260 nM |
| Cn1nc(C(F)(F)F)cc1C(=O)Nc1ccc(S(=O)(=O)N2CCCCCC2)cc1 | > 300 | < 2.3 | 5 | CC50 [3]: 425 µM |
| CCCN(CCC)S(=O)(=O)c1ccc(NC(=O)c2cc(C(F)(F)F)nn2C)cc1 | > 300 | < 2.3 | 190 | – |
| CC1CCCCN1S(=O)(=O)c1cccc(NC(=O)c2cc(C(F)(F)F)nn2C)c1 (configuration not stated) | 84 | > 75 | – | – |
| COC(=O)c1ccccc1-n1nc(C(F)(F)F)cc1C(=O)Nc1ccc(S(=O)(=O)N2CCCC2)cc1 | – | > 75 | > 75000 | CC50 [3]: > 300 µM |
| CCn1nc(C(F)(F)F)cc1C(=O)Nc1ccc(S(=O)(=O)N2CCCCC2C)cc1 (configuration not stated) | 30 | < 2.3 | 55 | – |
| Cn1nc(C(F)(F)F)c(Br)c1C(=O)Nc1ccc(S(=O)(=O)N2CCCC2)cc1 | 95 | > 75 | – | selectivity ratio [6]: < 1.3 |
| CC1CCCCN1S(=O)(=O)c1ccc(NC(=O)c2cc(C(F)(F)F)nn2C(C)C)cc1 (configuration not stated) | > 300 | > 75 | – | – |
| Cn1nc(C(F)(F)F)cc1C(=O)Nc1ccc(S(=O)(=O)N2CCCC(C(=O)O)C2)cc1 (configuration not stated) | > 300 | > 75 | – | – |
| COC=C1CCN(S(=O)(=O)c2ccc(NC(=O)c3cc(C(F)(F)F)nn3C)cc2)CC1 | 92 | > 75 | – | – |
| Cn1nc(C(F)(F)F)cc1C(=O)Nc1ccc(S(=O)(=O)N2CCCCCCC2)cc1 | 16 | < 2.3 | 45 | – |
| Cn1nc(C(F)(F)F)cc1C(=O)Nc1ccc(S(=O)(=O)N2CCCC2)cc1 | – | – | – | EC50 [5]: 250 nM |
| CC(C)N(C(C)C)S(=O)(=O)c1ccc(NC(=O)c2cc(C(F)(F)F)nn2C)cc1 | > 300 | 3.5 | 530 | – |

| Structure (SMILES) | CC50 [1] [µM] | EC50 [2] [µM] | EC50 [4] [nM] | other results |
| --- | --- | --- | --- | --- |
| Cn1nc(C(F)(F)F)cc1C(=O)Nc1ccc(S(=O)(=O)N2CCN(CCOCCO)CC2)cc1 | > 300 | > 75 | – | – |
| C=CCN(CC=C)S(=O)(=O)c1ccc(NC(=O)c2cc(C(F)(F)F)nn2C)cc1 | 34 | 3.3 | – | – |
| Cn1nc(C(F)(F)F)cc1C(=O)Nc1ccc(S(=O)(=O)N2CCCCC2C(=O)OC(C)(C)C)cc1 (configuration not stated) | 38 | > 38 | – | – |
| Cn1nc(C(F)(F)F)cc1C(=O)Nc1ccc(S(=O)(=O)N2CCC(N)CC2)cc1 | > 300 | > 75 | – | – |
| CC1CCCCN1S(=O)(=O)c1ccc(NC(=O)c2cc(C(F)(F)F)nn2Cc2ccccc2)cc1 (configuration not stated) | – | > 19 | > 19000 | CC50 [3]: 19 µM |
| NC(=O)c1ncn([C@@H]2O[C@H](CO)[C@@H](O)[C@H]2O)n1 [RIBAVIRIN] | – | – | – | selectivity ratio [7]: 14.4 |
| CC1CCCCN1S(=O)(=O)c1ccc(NC(=O)c2cc(C(F)(F)F)nn2C)cc1 (configuration not stated) | > 300 | < 2.3 | 29 | CC50 [3]: 54 µM |
| Cn1nc(C(F)(F)F)cc1C(=O)Nc1ccc(S(=O)(=O)N2CCC(NC(=O)OC(C)(C)C)CC2)cc1 | > 300 | 14.1 | – | – |
| Cn1nc(C(F)(F)F)cc1C(=O)Nc1ccc(S(=O)(=O)n2ccc3ccccc32)cc1 | – | > 13 | – | – |
| Cn1nc(C(F)(F)F)cc1C(=O)Nc1ccc(S(=O)(=O)N2CCC(O)CC2)cc1 | 274 | 6.8 | 570 | – |
| Cn1nc(C(F)(F)F)cc1C(=O)Nc1ccc(S(=O)(=O)N2CCCCC2)cc1 | > 300 | < 2.3 | 14 | selectivity ratio [8]: 14200; selectivity ratio [6]: > 130 |
| CN(C)S(=O)(=O)c1ccc(NC(=O)c2cc(C(F)(F)F)nn2C)cc1 | > 300 | 6.3 | – | – |
| Cn1nc(C(F)(F)F)cc1C(=O)Nc1ccc(S(=O)(=O)N2CCC[C@H]2C(=O)O)cc1 | > 300 | 23 | – | – |
| COC(=O)C1CCCCN1S(=O)(=O)c1ccc(NC(=O)c2cc(C(F)(F)F)nn2C)cc1 (configuration not stated) | 136 | 10 | – | – |
| CC1CCN(S(=O)(=O)c2ccc(NC(=O)c3cc(C(F)(F)F)nn3C)cc2)CC1 | > 300 | < 2.3 | 35 | CC50 [3]: 53 µM |
| CC(C)CN(CC(C)C)S(=O)(=O)c1ccc(NC(=O)c2cc(C(F)(F)F)nn2C)cc1 | 13.8 | > 13.8 | – | – |
| Cn1nc(C(F)(F)F)cc1C(=O)Nc1ccc(S(=O)(=O)N2CCCCC2CO)cc1 (configuration not stated) | – | < 2.3 | 850 | – |
| CCC1CCCCN1S(=O)(=O)c1ccc(NC(=O)c2cc(C(F)(F)F)nn2C)cc1 (configuration not stated) | > 300 | < 2.3 | 87 | CC50 [3]: 14 µM |
| Cn1nc(C(F)(F)F)cc1C(=O)Nc1ccc(S(=O)(=O)N2CCOCC2)cc1 | > 300 | 43 | – | – |
| NC(=O)c1ccc([N+](=O)[O-])cc1NC(=O)Cc1ccccc1 | – | – | – | EC50 [5]: 600 nM |
| CC1CCCCN1S(=O)(=O)c1ccccc1NC(=O)c1cc(C(F)(F)F)nn1C (configuration not stated) | > 300 | > 75 | – | – |
| CCN(CC)S(=O)(=O)c1ccc(NC(=O)c2cc(C(F)(F)F)nn2C)cc1 | > 300 | < 2.3 | 19 | CC50 [3]: 280 µM |
